Laboratory results reported in ChEMBL document CHEMBL3804786, “Novel 1,3-thiazolidin-4-one derivatives as promising anti-Candida agents endowed with anti-oxidant and chelating properties” (Eur J Med Chem, 2016).
≈ marks a conversion by molar mass, not a printed value. Blank lines part the entries; values can stand above or below the compound they belong to.

What was measured:
Nakaseomyces glabratus = assay: Antifungal activity against Candida glabrata clinical isolate after 24 hrs by broth microdilution method; assay type: functional
Escherichia coli = assay: Antibacterial activity against Escherichia coli after clinical isolate 18 to 22 hrs by broth microdilution method; assay type: functional
Candida parapsilosis = assay: Antifungal activity against Candida parapsilosis clinical isolate after 24 hrs by broth microdilution method; assay type: functional; conditions: Lodderomyces parapsilosis
[1] = Cytotoxicity against human Hep2 cells assessed as cell survival at 50 ug/ml after 24 hrs by trypan blue exclusion assay; assay type: cell-based, HEp-2; conditions: read-out: Survival
Candida tropicalis = assay: Antifungal activity against Candida tropicalis clinical isolate after 24 hrs by broth microdilution method; assay type: functional
[2] = Antioxidant activity assessed as DPPH radical scavenging activity after 30 mins under dark conditions; assay type: physicochemical
[3] = Antioxidant activity assessed as ABTS radical scavenging activity after 30 mins under dark conditions; assay type: physicochemical
[4] = Antioxidant activity of the compound after 90 mins by phosphomolybdenum assay; assay type: physicochemical
[5] = Cytotoxicity against human Hep2 cells assessed as cell survival at 0.5 ug/ml after 24 hrs by trypan blue exclusion assay; assay type: cell-based, HEp-2; conditions: read-out: Survival
[Candida] sake = Antifungal activity against Candida sake clinical isolate after 24 hrs by broth microdilution method; assay type: functional; conditions: Fermentozyma sake
[6] = Metal chelating activity of the compound assessed as ferrous ion complex formation after 10 mins; assay type: physicochemical
[7] = test system: Streptococcus sp. (viridans group); assay: Antibacterial activity against Streptococcus alpha-hemolyticus clinical isolate after 18 to 22 hrs by broth microdilution method
[8] = Cytotoxicity against human Hep2 cells assessed as cell survival at 0.05 ug/ml after 24 hrs by trypan blue exclusion assay; assay type: cell-based, HEp-2; conditions: read-out: Survival
Staphylococcus aureus = assay: Antibacterial activity against Staphylococcus aureus clinical isolate after 18 to 22 hrs by broth microdilution method; assay type: functional
Staphylococcus warneri = assay: Antibacterial activity against Staphylococcus warneri clinical isolate after 18 to 22 hrs by broth microdilution method; assay type: functional
Candida albicans = assay: Antifungal activity against Candida albicans clinical isolate after 24 hrs by broth microdilution method; assay type: functional
[9] = Cytotoxicity against human Hep2 cells assessed as reduction in cell viability after 24 hrs by trypan blue exclusion assay; assay type: cell-based, HEp-2
Pichia kudriavzevii = assay: Antifungal activity against Candida krusei clinical isolate after 24 hrs by broth microdilution method; assay type: functional
[10] = Cytotoxicity against human Hep2 cells assessed as cell survival at 10 ug/ml after 24 hrs by trypan blue exclusion assay; assay type: cell-based, HEp-2; conditions: read-out: Survival
Enterobacter sp. = assay: Antibacterial activity against Enterobacter spp. clinical isolate after 18 to 22 hrs by broth microdilution method; assay type: functional
[11] = Antioxidant activity of the compound after 30 mins by FRAP assay; assay type: physicochemical
Proteus mirabilis = assay: Antibacterial activity against Proteus mirabilis clinical isolate after 18 to 22 hrs by broth microdilution method; assay type: functional
Enterococcus faecalis = assay: Antibacterial activity against Streptococcus faecalis clinical isolate after 18 to 22 hrs by broth microdilution method; assay type: functional
[12] = Antioxidant activity of the compound after 30 mins by CUPRAC method; assay type: physicochemical
Klebsiella oxytoca = assay: Antibacterial activity against Klebsiella oxytoca clinical isolate after 18 to 22 hrs by broth microdilution method; assay type: functional
[13] = Cytotoxicity against human Hep2 cells assessed as cell survival at 5 ug/ml after 24 hrs by trypan blue exclusion assay; assay type: cell-based, HEp-2; conditions: read-out: Survival

SMILES: C/C(=N\N=C1/SCC(=O)N1Cc1cccc(F)c1)c1cccs1
MIC (Nakaseomyces glabratus): 8 µg/mL (≈ 23 µM)
MIC (Escherichia coli): > 256 µg/mL
MIC (Candida parapsilosis): 2 µg/mL (≈ 5.76 µM)
viability at 24 h, 50 ug/ml [1]: 0%
MIC (Candida tropicalis): 2 µg/mL (≈ 5.76 µM)
IC50 [2]: > 5000 µM
IC50 [3]: 21100 µM
EC50 [4]: 1360 µM
viability at 24 h, 0.5 ug/ml [5]: 68%
MIC ([Candida] sake): 2 µg/mL (≈ 5.76 µM)
IC50 [6]: 4640 µM
MIC [7]: > 256 µg/mL
viability at 24 h, 0.05 ug/ml [8]: 80%
MIC (Staphylococcus aureus): > 256 µg/mL
MIC (Staphylococcus warneri): > 256 µg/mL
MIC (Candida albicans): 2 µg/mL (≈ 5.76 µM)
CC50 at 24 h [9]: 6 µg/mL (≈ 17.3 µM)
MIC (Pichia kudriavzevii): 2 µg/mL (≈ 5.76 µM)
viability at 24 h, 10 ug/ml [10]: 0%
MIC (Enterobacter sp.): > 256 µg/mL
EC50 [11]: 2620 µM
MIC (Proteus mirabilis): > 256 µg/mL
MIC (Enterococcus faecalis): > 256 µg/mL
EC50 [12]: 2550 µM
MIC (Klebsiella oxytoca): > 256 µg/mL
viability at 24 h, 5 ug/ml [13]: 42%

SMILES: C/C(=N/N=C1\SCC(=O)N1Cc1ccc(F)cc1)c1ccccn1
MIC (Nakaseomyces glabratus): 2 µg/mL (≈ 5.84 µM)
MIC (Escherichia coli): > 256 µg/mL
MIC (Candida parapsilosis): 4 µg/mL (≈ 11.7 µM)
viability at 24 h, 50 ug/ml [1]: 0%
MIC (Candida tropicalis): 2 µg/mL (≈ 5.84 µM)
IC50 [2]: > 5000 µM
IC50 [3]: 16100 µM
EC50 [4]: 1160 µM
viability at 24 h, 0.5 ug/ml [5]: 83%
MIC ([Candida] sake): 2 µg/mL (≈ 5.84 µM)
IC50 [6]: 3670 µM
MIC [7]: > 256 µg/mL
viability at 24 h, 0.05 ug/ml [8]: 91%
MIC (Staphylococcus aureus): > 256 µg/mL
MIC (Staphylococcus warneri): > 256 µg/mL
MIC (Candida albicans): 2 µg/mL (≈ 5.84 µM)
CC50 at 24 h [9]: 16 µg/mL (≈ 46.7 µM)
MIC (Pichia kudriavzevii): 8 µg/mL (≈ 23.4 µM)
viability at 24 h, 10 ug/ml [10]: 42%
MIC (Enterobacter sp.): > 256 µg/mL
EC50 [11]: 6220 µM
MIC (Proteus mirabilis): > 256 µg/mL
MIC (Enterococcus faecalis): > 256 µg/mL
EC50 [12]: 1750 µM
MIC (Klebsiella oxytoca): > 256 µg/mL
viability at 24 h, 5 ug/ml [13]: 70%

SMILES: C/C(=N/N=C1\SCC(=O)N1Cc1ccc(N)cc1)c1cccs1
MIC (Nakaseomyces glabratus): 8 µg/mL (≈ 23.2 µM)
MIC (Escherichia coli): > 256 µg/mL
MIC (Candida parapsilosis): 8 µg/mL (≈ 23.2 µM)
MIC (Candida tropicalis): 2 µg/mL (≈ 5.81 µM)
MIC ([Candida] sake): 2 µg/mL (≈ 5.81 µM)
MIC [7]: > 256 µg/mL
MIC (Staphylococcus aureus): > 256 µg/mL
MIC (Staphylococcus warneri): > 256 µg/mL
MIC (Candida albicans): 4 µg/mL (≈ 11.6 µM)
MIC (Pichia kudriavzevii): 8 µg/mL (≈ 23.2 µM)
MIC (Enterobacter sp.): > 256 µg/mL
MIC (Proteus mirabilis): > 256 µg/mL
MIC (Enterococcus faecalis): > 256 µg/mL
MIC (Klebsiella oxytoca): > 256 µg/mL

SMILES: C/C(=N/N=C1\SCC(=O)N1Cc1ccc(N)cc1)c1ccccn1
MIC (Nakaseomyces glabratus): 8 µg/mL (≈ 23.6 µM)
MIC (Escherichia coli): > 256 µg/mL
MIC (Candida parapsilosis): 8 µg/mL (≈ 23.6 µM)
MIC (Candida tropicalis): 2 µg/mL (≈ 5.89 µM)
MIC ([Candida] sake): 2 µg/mL (≈ 5.89 µM)
MIC [7]: > 256 µg/mL
MIC (Staphylococcus aureus): > 256 µg/mL
MIC (Staphylococcus warneri): > 256 µg/mL
MIC (Candida albicans): 2 µg/mL (≈ 5.89 µM)
MIC (Pichia kudriavzevii): 8 µg/mL (≈ 23.6 µM)
MIC (Enterobacter sp.): > 256 µg/mL
MIC (Proteus mirabilis): > 256 µg/mL
MIC (Enterococcus faecalis): > 256 µg/mL
MIC (Klebsiella oxytoca): > 256 µg/mL

SMILES: Clc1ccccc1C(c1ccccc1)(c1ccccc1)n1ccnc1 [CLOTRIMAZOLE]
MIC (Nakaseomyces glabratus): 2 µg/mL (≈ 5.8 µM)
MIC (Candida parapsilosis): 2 µg/mL (≈ 5.8 µM)
viability at 24 h, 50 ug/ml [1]: 10.2%
MIC (Candida tropicalis): 2 µg/mL (≈ 5.8 µM)
MIC ([Candida] sake): 2 µg/mL (≈ 5.8 µM)
MIC (Candida albicans): 2 µg/mL (≈ 5.8 µM)
CC50 at 24 h [9]: 18 µg/mL (≈ 52.2 µM)
MIC (Pichia kudriavzevii): 2 µg/mL (≈ 5.8 µM)

The next lines start with results.

MIC (Nakaseomyces glabratus): 4 µg/mL (≈ 13.1 µM)
MIC (Escherichia coli): > 256 µg/mL
MIC (Candida parapsilosis): 16 µg/mL (≈ 52.2 µM)
MIC (Candida tropicalis): 8 µg/mL (≈ 26.1 µM)
MIC ([Candida] sake): 4 µg/mL (≈ 13.1 µM)
MIC (Staphylococcus aureus): > 256 µg/mL
MIC (Staphylococcus warneri): > 256 µg/mL
MIC (Candida albicans): 2 µg/mL (≈ 6.53 µM)
MIC (Pichia kudriavzevii): 2 µg/mL (≈ 6.53 µM)
MIC (Enterobacter sp.): > 256 µg/mL
MIC (Proteus mirabilis): > 256 µg/mL
MIC (Enterococcus faecalis): > 256 µg/mL
MIC (Klebsiella oxytoca): > 256 µg/mL
SMILES: CC(C)=N/N=C1\SCC(=O)N1Cc1ccccc1[N+](=O)[O-]
MIC [7]: > 256 µg/mL

IC50 [6]: 20 µM
SMILES: O=C(O)CN(CCN(CC(=O)O)CC(=O)O)CC(=O)O [EDETIC ACID]

IC50 [2]: 400 µM
IC50 [3]: 660 µM
EC50 [4]: 1130 µM
EC50 [11]: 160 µM
EC50 [12]: 240 µM
SMILES: Cc1c(C)c2c(c(C)c1O)CCC(C)(C(=O)O)O2 (stereo not drawn) [TROLOX]
